Reference: patent US20090312316A1, “NOVEL COMPOUNDS” (priority 2006, published 2009)
pIC50: −log10 of the molar value. Converted amounts (≈) assume the structure as drawn.

Tests used:
[1] = system: VEGF-induced angiogenesis (WiDr cells); conditions: 1.8 mg/kg by intraperitoneal injection; Funahashi et al., 1999; cited from earlier work
[2] = system: Lewis lung adenocarcinoma; conditions: WO 01/09113; cited from earlier work
[3] = system: panel of 12 human tumour cell lines; assay: monolayer proliferation assay (modified propidium iodide assay) in a panel of 12 human tumour cell lines; type: cell-based
Procedure: In vitro evaluation of compounds for anticancer activity in a panel of 12 human tumour cell lines in a monolayer proliferation assay was carried out at the Oncotest Testing Facility, Institute for Experimental Oncology, Oncotest GmbH, Freiburg.
The Oncotest cell lines were established from human tumor xenografts as described by Roth et al., (1999). The origin of the donor xenografts was described by Fiebig et al., (1999). Other cell lines were either obtained from the NCI (H460, SF-268, OVCAR-3, DU145, MDA-MB-231, MDA-MB-468) or purchased from DSMZ, Braunschweig, Germany (LNCAP).
All cell lines, unless otherwise specified, were grown at 37° C. in a humidified atmosphere (95% air, 5% CO2) in a ‘ready-mix’ medium containing RPMI 1640 medium, 10% fetal calf serum, and 0.1 mg/mL gentamicin (PAA, Cölbe, Germany).
A modified propidium iodide assay was used to assess the effects of the test compound(s) on the growth of human tumour cell lines (Dengler et al., (1995)).
Briefly, cells were harvested from exponential phase cultures by trypsinization, counted and plated in 96 well flat-bottomed microtitre plates at a cell density dependent on the cell line (5-10.000 viable cells/well). After 24 h recovery to allow the cells to resume exponential growth, 0.010 mL of culture medium (6 control wells per plate) or culture medium containing macbecin were added to the wells. Each concentration was plated in triplicate. Compounds were applied in two concentrations (0.001 mM and 0.01 mM). Following 4 days of continuous exposure, cell culture medium with or without test compound was replaced by 0.2 mL of an aqueous propidium iodide (PI) solution (7 mg/L). To measure the proportion of living cells, cells were permeabilized by freezing the plates. After thawing the plates, fluorescence was measured using the Cytofluor 4000 microplate reader (excitation 530 nm, emission 620 nm), giving a direct relationship to the total number of viable cells.
The mean growth inhibition across the 12 cell-line panel was expressed as treated/control×100 (% T/C).
In vitro evaluation of the test compounds for anticancer activity in a panel of human tumour cell lines in a monolayer proliferation assay was carried out as described in the general methods using a modified propidium iodide assay. This screen may be used as a model for the toxic effect of compounds in inhibiting general cell growth.

CAM vasculature = assay: Chick chorioallantoic membrane (CAM) assay of anti-angiogenic activity; type: in vivo
Procedure: Fresh fertile eggs were be incubated for 3 days in a standard egg incubator at 37° C. for 3 days. On Day 3, eggs were cracked under sterile conditions and embryos were placed into 20×100 mm plastic plates and cultivated at 37° C. in an embryo incubator with a water reservoir on the bottom shelf. Air was continuously bubbled into the water reservoir using a small pump so that the humidity in the incubator was kept constant. […] Embryos were returned to the incubator after addition of test material. Control embryos received 10 μL of vehicle alone. […] The blood vessel density was semi-quantitatively measured using an angiogenesis scoring system, in that exponential numbers 1 to 32 were used to indicate number of blood vessels present at the treatment sites on the CAM. Number 32 represented the highest density and 0 represented no angiogenesis. The percent of inhibition at each dosing site was calculated using the score recorded for that site divided by the mean score obtained from the appropriate control samples for each individual experiment. The percent of inhibition for each dose of a given compound was calculated by pooling all results obtained for that dose.

[4] = system: protein synthesis in the cultured rat cells; conditions: cited from earlier work
capillary tube formation = conditions: Wakabayashi et al., 1997, cited from earlier work
[5] = molecular target: cyclin-dependant kinase Cdc28/Cln2 (Saccharomyces cerevisiae, UniProt P00546); conditions: Tsuchiya et al., 2001; cited from earlier work
cyclin-dependant kinase Cdc28/Cln2, sequence (P00546 whole entry): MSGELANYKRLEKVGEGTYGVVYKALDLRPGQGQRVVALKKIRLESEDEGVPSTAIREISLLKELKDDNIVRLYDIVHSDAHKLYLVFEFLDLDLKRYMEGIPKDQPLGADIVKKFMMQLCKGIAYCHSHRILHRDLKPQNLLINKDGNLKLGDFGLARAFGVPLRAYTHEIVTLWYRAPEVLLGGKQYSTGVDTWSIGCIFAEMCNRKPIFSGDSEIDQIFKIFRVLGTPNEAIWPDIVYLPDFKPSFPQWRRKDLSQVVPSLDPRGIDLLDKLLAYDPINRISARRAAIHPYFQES
cyclin-dependant kinase Cdc28/Cln2, sequence (P20438 whole entry partner): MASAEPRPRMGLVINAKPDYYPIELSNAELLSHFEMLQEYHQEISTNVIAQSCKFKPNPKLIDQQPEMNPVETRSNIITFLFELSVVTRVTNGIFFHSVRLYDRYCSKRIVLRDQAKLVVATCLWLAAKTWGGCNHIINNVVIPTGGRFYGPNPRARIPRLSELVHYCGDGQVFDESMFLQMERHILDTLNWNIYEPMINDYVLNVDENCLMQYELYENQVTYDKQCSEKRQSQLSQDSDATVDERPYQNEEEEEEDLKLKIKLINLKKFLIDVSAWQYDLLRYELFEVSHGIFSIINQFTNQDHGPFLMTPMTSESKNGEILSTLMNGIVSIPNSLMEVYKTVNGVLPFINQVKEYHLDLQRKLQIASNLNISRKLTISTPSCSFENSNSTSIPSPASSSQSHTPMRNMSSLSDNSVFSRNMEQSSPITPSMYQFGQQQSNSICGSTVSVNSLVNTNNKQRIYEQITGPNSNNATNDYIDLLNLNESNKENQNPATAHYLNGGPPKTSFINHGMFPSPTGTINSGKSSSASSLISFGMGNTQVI

[6] = system: human umbilical vein endothelial cells (HUVEC); conditions: cited from earlier work
B16-BL6 melanoma cells = conditions: same dosage (1.8 mg/kg); cited from earlier work

SMILES: C[C@@H]1C[C@H](C)C[C@H](C)[C@@H](O)CC(=O)O[C@H]([C@@H]2CCC[C@H]2C(=O)O)C/C=C/C=C(/C#N)[C@H](O)[C@@H](C)C1 [Compound 1, Borrelidin]
- increment of vascular volume induced by WiDr cells [1]: significantly reduce
- propagation of metastatic nodules after removal of the primary tumour [2]: weakly inhibited
- Mean % T/C at 1 μM ([3]; 1 μM, mean growth across 12 cell-line panel, treated/control x 100, 4 days exposure): 7 % T/C
- Mean % T/C at 10 μM ([3]; 10 μM, mean growth across 12 cell-line panel, treated/control x 100, 4 days exposure): 6 % T/C
- inhibition at 1 µM ([3]; Homo sapiens, 1 uM, 100 minus mean %T/C at 1 uM of Table III, read-out: Mean percentage Inhibition of cancer cell lines at 1 uM): 93%
- Mean percentage inhibition of CAM vasculature at 25 ng/CAM (CAM vasculature; 25 ng/CAM): 62%
- Ratio of inhibition of CAM vasculature at 25 ng/CAM to in vitro cancer cell inhibition at 1 uM (CAM vasculature; 25 ng/CAM versus 1 uM in cancer cell panel): 0.6
- Mean blood vessel density score (CAM vasculature; angiogenesis score up to 32 (highest density), 0 = no angiogenesis, mean of ten experiments): 6.4
- anti-angiogenesis IC50 lower than IC50 for inhibition of protein synthesis ([4]; 0.4 ng/mL versus 20 ng/mL): 50 fold
- IC50 inhibition of protein synthesis ([4]; cultured rat cells): 0.02 µg/mL
- IC50 inhibition of capillary tube formation (capillary tube formation): 0.0004 µg/mL
- pIC50 (capillary tube formation; read-out: IC50 inhibition of capillary tube formation): 9.10
- IC50 Cdc28/Cln2 [5]: 12 µg/mL (≈ 24.5 µM)
- IC50 anti-proliferative activity towards HUVEC ([6]; cell growth assay, Wakabayashi et al., 1997): 0.006 µg/mL (≈ 0.0123 µM)
- HUVEC anti-proliferative IC50 weaker than anti-angiogenesis activity ([6]; measured in the same medium): 15 fold
- inhibition of the formation of spontaneous lung metastases (B16-BL6 melanoma cells): effective
